The text below walks through data of publication PMC4710522, “A Novel Triazolopyridine-Based Spleen Tyrosine Kinase Inhibitor That Arrests Joint Inflammation” (PLoS ONE, 2016).

A word on the IC50: it is the concentration that gives 50% inhibition.

One experiment has as its target T1, DYRK3_h (Homo sapiens, UniProt O43781).
T1 construct: purchased Life Technologies (Invitrogen) SelectScreen, Z'-LYTE / Adapta
Description: SelectScreen kinase assay. It is filed as biochemical. As to conditions: KM ATP. The procedure: (§1) Syk kinase mode of inhibition studies, including parameters described in Fig 1, were conducted on the LC3000 platform by Caliper Life Sciences (Hopkinton, MA) according to standard protocols developed by the supplier. […] Non-kinase enzyme assays and GPCR, ion channel, and transporter binding assays were run by CEREP (France). Non-GLP manual patch clamp hERG assays were run by ChanTest (Cleveland, Ohio). Vivid® Assay kits (Life Technologies) were used to measure the cytochrome P450 inhibition of the compound against CYP3A, CYP2C9, CYP2C19, CYP2D6, and CYP1A2, as described.
(§2) Kinase activity was measured using either the Z’-Lyte® or the Adapta® protocols as part of the SelectScreen™ profiling service offered at Life Technologies (Grand Island, NY). For the single point measurements (Part A), CC-509 was kept constant at 3 µM while ATP concentrations [ATP] used were at the KM for ATP (KM ATP) for that specific enyzme, at 10 or 100 µM ATP (10 ATP or 100 ATP, respectively), as indicated. Values expressed as percent control (% control) relative to DMSO-only wells (uninhibited, 100%).
(§3) Kinase activity was measured using either the Z’-Lyte® or the Adapta® protocols as part of the SelectScreen™ profiling service offered at Life Technologies (Grand Island, NY). […] Values expressed as percent control (% control) relative to DMSO-only wells (uninhibited, 100%).

Another experiment deals with T2, EEF2K_h (Homo sapiens, UniProt O00418).
T2 construct: purchased Life Technologies (Invitrogen) SelectScreen, Z'-LYTE / Adapta
The experiment can be described thus: SelectScreen kinase assay. Type of experiment: biochemical. As to conditions: KM ATP. The procedure: as §1, §2, §3

The target in the next experiment is T3, GRK5_h (Homo sapiens, UniProt P34947).
T3 construct: purchased Life Technologies (Invitrogen) SelectScreen, Z'-LYTE / Adapta
The experiment can be described thus: SelectScreen kinase assay. It is filed as biochemical. The settings on record: KM ATP. The protocol:
as §1, §2, §3

The next experiment addresses T4, PASK_h (Homo sapiens, UniProt Q96RG2).
T4 construct: purchased Life Technologies (Invitrogen) SelectScreen, Z'-LYTE / Adapta
The experiment can be described thus: SelectScreen kinase assay. Type of experiment: biochemical. The settings on record: KM ATP. The procedure: as §1, §2, §3

A further experiment has as its target T5, PKC-betaII_h (Homo sapiens, UniProt P05771).
T5 construct: purchased Life Technologies (Invitrogen) SelectScreen, Z'-LYTE / Adapta
Description: SelectScreen kinase assay. Type of experiment: biochemical. As to conditions: KM ATP. The protocol:
as §1, §2, §3

A further experiment concerns the target T6, PKC-betaI_h (Homo sapiens, UniProt P05771).
T6 construct: purchased Life Technologies (Invitrogen) SelectScreen, Z'-LYTE / Adapta
Description: SelectScreen kinase assay. It is filed as biochemical. The settings on record: KM ATP. The procedure: as §1, §2, §3

Another experiment concerns the target T7, SGK_h (Homo sapiens, UniProt O00141).
T7 construct: purchased Life Technologies (Invitrogen) SelectScreen, Z'-LYTE / Adapta
Description: SelectScreen kinase assay. Type of experiment: biochemical. As to conditions: KM ATP. The procedure: as §1, §2, §3

Experiment [1] concerns BCR-dependent CD69 upregulation on primary human B-cells. The experiment can be described thus: primary human B-cell assay, anti-IgM stimulated CD69 upregulation. It is filed as cell-based. The protocol:
Buffy coat-derived purified B-cells were generated using the RosetteSep B-cell and Ficoll-Paque Plus reagents, as described in protocols provided by the suppliers. Purified B-cells were plated in 96-well U-bottom plates, preincubated with CC-509 at indicated concentrations for 30 minutes, and then stimulated with anti-IgM for 14 hours in a tissue culture incubator. Plates were washed once in FBS Stain Buffer and incubated with the anti-CD69 antibody in the dark for 30 minutes at room temperature. Plates were washed three times and analyzed by flow cytometry on the FACSArray Bioanalyzer. Standard gating methods were used to identify B-cells and to measure the mean intensity of CD69 fluorescence. FCS files were exported and analyzed as described in the Data Analysis section.
For the TEL-Syk assay, the intensity values for the 700 and 800 channel were exported as text files in ActivityBase (IDBS, Guildford, UK) to derive the ratios that reflect kinase activity. For LAD2 experiments, enzyme activity values were exported as text files into ActivityBase to calculate “percent release” according to the formula: 100* supernatant OD405/ (supernatant OD405 + (pellet OD405*pellet dilution factor)). For the basophil and B-cells assays, flow cytometry data was exported from the FACS Array and processed using FloJo software package (TreeStar, Inc., Ashland, Oregon). For the JAK2 HEL and Ramos NFAT β-lactamase assays, the fluorescence values obtained at 460 nm and 530 nm were exported into ActivityBase to calculate response ratios. For the neutrophil, macrophage, KDR, and JAK1/3 assays, raw values were exported into ActivityBase to calculate percent inhibition. All IC50 calculations were generated using XLfit (IDBS, Guildford, UK) algorithm 205 within Excel. […] Evans blue dye extravasation was expressed as mean ± SEM and % inhibition for the test article groups was normalized to the cromolyn positive control. […] The mean data from each group was plotted and either the AUC(day 11–18) or % inhibition on day 18 was calculated. Data is expressed as mean ± SEM of each group with n = 6–12. […]

Experiment [2] deals with basophil activation in human whole blood. Description: basophil human whole blood assay (CD63). It is filed as cell-based. The procedure: Assay was conducted according to the protocol for the BasoTest kit provided by supplier (Biocarta, San Diego, CA), with slight modification. Briefly, 100μl of heparinized human whole blood was added to each well of a 24-well deep plate (Microliter Analytical Supplies, Suwanee, GA) and preincubated with CC-509 for 30 minutes in a 37°C water bath. Basophils were stimulated with mite or dust extract (included in kit), or anti-IgE (diluted 1:10,000) for 20 minutes in a 37°C water bath and then on ice for 5 minutes. Cells were incubated in the FcεR receptor and CD63 antibody staining solution (included in kit) for 20 minutes on ice followed by agitation in a fixative/ red blood cell lysis buffer (included in kit) for 10 minutes at room temperature. Cells were washed twice with Basosalt solution (included in kit) and the final cell suspensions was transferred to U-bottom 96-well plates (BD Falcon, San Diego, CA) for analysis by flow cytometry on the FACSArray Bioanalyzer (BD Biosciences, San Jose, CA). Standard gating methods were used to identify basophils and to measure the mean intensity of CD63 fluorescence. FCS files were exported and analyzed as described in the Data Analysis section.
For the TEL-Syk assay, the intensity values for the 700 and 800 channel were exported as text files in ActivityBase (IDBS, Guildford, UK) to derive the ratios that reflect kinase activity. For LAD2 experiments, enzyme activity values were exported as text files into ActivityBase to calculate “percent release” according to the formula: 100* supernatant OD405/ (supernatant OD405 + (pellet OD405*pellet dilution factor)). For the basophil and B-cells assays, flow cytometry data was exported from the FACS Array and processed using FloJo software package (TreeStar, Inc., Ashland, Oregon). For the JAK2 HEL and Ramos NFAT β-lactamase assays, the fluorescence values obtained at 460 nm and 530 nm were exported into ActivityBase to calculate response ratios. For the neutrophil, macrophage, KDR, and JAK1/3 assays, raw values were exported into ActivityBase to calculate percent inhibition. All IC50 calculations were generated using XLfit (IDBS, Guildford, UK) algorithm 205 within Excel. For PCA, the OD from the saline injected site was subtracted from the OD from the anti-DNP IgE injected site. Evans blue dye extravasation was expressed as mean ± SEM and % inhibition for the test article groups was normalized to the cromolyn positive control. For the CIA model paw measurements (left and right ankle diameter) were taken for each individual animal and averaged. The mean data from each group was plotted and either the AUC(day 11–18) or % inhibition on day 18 was calculated. Data is expressed as mean ± SEM of each group with n = 6–12. […]

Another experiment concerns MH7A cells. The experiment can be described thus: MH7A synoviocytes, TNFα-induced IL-6 production. It is filed as cell-based, human. The procedure: Cells were maintained in culture and assayed as described by supplier. Briefly, MH7A cells were seeded to 6000 cells/ well in 96 well plates 1 day prior to stimulation. Cells were pretreated with compounds for 30 minutes, stimulated with TNFα (2 ng/ml) or IL-1β (0.5 ng/ml) and placed in tissue culture incubator for 16 hours. Supernatants were collected and assayed for cytokines using the Mesoscale Proinflammatory Panel I or Proinflammatory 4-plex according to the manufacturer’s protocol (Mesoscale, Gaithersberg, MD).

Each structure is given as a SMILES string. Like-named read-outs stand apart in the source and are kept apart here.

T2 sequence (O00418 whole entry): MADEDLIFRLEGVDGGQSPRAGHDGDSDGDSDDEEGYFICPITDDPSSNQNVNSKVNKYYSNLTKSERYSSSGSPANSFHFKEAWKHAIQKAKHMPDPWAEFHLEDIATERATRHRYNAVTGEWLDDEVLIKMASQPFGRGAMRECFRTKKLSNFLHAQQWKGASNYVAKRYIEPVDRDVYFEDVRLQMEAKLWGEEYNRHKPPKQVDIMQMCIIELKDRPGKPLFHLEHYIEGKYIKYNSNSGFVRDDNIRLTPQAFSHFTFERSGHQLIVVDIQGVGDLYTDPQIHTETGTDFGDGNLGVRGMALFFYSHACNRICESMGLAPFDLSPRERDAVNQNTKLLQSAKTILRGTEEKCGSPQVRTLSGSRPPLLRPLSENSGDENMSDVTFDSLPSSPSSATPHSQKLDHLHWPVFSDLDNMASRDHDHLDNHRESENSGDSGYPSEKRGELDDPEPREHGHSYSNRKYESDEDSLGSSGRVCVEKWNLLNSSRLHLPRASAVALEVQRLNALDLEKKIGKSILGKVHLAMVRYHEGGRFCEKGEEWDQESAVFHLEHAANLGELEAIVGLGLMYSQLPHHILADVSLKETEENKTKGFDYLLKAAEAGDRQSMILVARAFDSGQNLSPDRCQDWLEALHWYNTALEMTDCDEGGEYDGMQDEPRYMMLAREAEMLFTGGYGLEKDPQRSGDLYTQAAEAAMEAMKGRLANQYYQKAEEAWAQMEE
T7 sequence (O00141 whole entry): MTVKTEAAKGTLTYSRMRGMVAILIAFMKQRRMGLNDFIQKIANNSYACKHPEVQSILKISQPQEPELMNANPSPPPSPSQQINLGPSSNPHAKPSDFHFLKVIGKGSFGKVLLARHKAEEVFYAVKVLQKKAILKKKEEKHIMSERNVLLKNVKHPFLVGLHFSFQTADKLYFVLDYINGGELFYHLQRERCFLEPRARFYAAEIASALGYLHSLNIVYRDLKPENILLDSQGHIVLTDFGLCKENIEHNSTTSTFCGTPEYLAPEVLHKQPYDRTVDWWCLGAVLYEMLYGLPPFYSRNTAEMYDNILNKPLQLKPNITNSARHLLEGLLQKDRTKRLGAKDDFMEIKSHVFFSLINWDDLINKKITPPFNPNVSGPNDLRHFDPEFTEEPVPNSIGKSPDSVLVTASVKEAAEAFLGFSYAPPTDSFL
T4 sequence (Q96RG2 whole entry): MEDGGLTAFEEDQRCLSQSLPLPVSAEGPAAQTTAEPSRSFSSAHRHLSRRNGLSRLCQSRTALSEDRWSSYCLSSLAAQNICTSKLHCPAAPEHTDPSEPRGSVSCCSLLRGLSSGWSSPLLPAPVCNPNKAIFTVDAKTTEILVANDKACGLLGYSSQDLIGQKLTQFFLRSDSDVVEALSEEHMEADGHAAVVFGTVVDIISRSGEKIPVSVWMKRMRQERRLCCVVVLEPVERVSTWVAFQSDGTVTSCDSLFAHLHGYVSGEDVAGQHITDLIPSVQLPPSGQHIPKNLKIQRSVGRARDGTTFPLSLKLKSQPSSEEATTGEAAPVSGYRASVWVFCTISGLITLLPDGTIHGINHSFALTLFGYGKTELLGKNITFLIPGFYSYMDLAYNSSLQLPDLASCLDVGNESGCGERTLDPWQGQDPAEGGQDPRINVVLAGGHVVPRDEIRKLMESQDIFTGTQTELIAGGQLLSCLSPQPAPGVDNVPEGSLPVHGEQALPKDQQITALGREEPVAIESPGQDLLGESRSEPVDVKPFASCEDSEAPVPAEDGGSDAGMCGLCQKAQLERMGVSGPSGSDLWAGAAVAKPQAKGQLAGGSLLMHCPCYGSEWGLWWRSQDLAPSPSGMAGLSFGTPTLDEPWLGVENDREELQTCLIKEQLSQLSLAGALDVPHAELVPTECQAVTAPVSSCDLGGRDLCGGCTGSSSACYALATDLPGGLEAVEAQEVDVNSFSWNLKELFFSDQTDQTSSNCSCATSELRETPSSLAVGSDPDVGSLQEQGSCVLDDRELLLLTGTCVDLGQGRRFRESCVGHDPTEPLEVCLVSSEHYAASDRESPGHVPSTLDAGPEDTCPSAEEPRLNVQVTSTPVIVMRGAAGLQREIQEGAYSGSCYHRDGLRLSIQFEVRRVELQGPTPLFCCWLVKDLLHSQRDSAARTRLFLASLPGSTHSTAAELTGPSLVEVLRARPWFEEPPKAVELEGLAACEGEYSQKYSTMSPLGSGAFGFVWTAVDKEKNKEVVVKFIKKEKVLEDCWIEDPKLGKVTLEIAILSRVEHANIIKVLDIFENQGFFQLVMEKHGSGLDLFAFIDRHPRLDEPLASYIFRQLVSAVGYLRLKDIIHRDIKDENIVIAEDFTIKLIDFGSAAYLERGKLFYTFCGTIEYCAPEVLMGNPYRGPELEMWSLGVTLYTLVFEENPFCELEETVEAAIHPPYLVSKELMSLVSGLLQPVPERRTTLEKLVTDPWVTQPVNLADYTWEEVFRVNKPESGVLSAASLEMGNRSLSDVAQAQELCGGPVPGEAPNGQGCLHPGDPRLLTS
T5 sequence (P05771 1-673 isoform P05771-2): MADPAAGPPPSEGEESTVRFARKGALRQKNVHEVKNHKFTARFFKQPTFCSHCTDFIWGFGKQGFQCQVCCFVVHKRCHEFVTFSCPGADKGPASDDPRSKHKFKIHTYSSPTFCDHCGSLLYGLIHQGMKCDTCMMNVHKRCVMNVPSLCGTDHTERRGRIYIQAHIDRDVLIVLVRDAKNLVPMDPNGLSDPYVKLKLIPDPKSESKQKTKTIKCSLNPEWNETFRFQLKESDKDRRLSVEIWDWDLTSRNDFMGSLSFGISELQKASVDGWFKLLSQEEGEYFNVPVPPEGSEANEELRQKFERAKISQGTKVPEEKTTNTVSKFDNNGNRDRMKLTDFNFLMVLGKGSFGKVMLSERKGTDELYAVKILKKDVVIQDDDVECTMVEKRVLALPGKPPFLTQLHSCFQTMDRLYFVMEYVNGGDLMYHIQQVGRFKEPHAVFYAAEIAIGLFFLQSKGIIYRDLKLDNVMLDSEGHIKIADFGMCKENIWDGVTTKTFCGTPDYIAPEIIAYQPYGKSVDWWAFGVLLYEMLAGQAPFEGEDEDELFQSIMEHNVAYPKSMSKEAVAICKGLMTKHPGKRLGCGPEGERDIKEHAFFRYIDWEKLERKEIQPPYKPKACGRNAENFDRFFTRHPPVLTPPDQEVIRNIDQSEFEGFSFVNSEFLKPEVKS
T3 sequence (P34947 whole entry): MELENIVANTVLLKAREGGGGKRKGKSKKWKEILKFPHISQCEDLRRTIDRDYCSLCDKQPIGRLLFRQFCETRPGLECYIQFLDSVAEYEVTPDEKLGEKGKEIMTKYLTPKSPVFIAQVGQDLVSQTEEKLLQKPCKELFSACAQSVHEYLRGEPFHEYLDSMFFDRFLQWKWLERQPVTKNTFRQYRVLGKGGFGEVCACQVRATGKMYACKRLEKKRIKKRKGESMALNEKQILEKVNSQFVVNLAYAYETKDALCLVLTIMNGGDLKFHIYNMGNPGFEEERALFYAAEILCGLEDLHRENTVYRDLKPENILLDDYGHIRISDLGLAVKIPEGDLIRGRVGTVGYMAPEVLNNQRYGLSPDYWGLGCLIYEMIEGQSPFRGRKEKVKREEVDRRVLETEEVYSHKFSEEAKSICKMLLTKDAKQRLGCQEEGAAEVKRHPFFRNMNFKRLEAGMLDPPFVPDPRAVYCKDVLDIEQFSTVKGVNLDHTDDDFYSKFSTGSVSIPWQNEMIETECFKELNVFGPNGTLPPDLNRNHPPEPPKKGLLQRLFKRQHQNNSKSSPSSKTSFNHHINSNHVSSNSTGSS
T1 sequence (O43781 whole entry): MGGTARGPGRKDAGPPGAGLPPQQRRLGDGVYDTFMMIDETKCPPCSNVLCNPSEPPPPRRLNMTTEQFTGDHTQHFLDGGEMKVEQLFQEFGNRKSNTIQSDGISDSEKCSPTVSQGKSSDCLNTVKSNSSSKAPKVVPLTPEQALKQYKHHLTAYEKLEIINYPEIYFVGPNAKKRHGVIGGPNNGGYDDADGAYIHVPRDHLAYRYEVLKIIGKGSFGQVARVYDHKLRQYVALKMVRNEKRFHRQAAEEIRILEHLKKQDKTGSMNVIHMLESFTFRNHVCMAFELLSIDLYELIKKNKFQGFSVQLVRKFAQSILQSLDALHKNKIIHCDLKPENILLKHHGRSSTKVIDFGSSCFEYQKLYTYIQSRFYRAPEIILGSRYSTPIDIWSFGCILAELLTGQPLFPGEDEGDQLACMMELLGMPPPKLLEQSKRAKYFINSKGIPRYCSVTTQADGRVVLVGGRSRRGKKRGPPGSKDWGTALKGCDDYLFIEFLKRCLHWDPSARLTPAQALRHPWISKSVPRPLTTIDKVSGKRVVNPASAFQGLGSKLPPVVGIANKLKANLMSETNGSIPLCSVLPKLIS
T6 sequence (P05771 whole entry): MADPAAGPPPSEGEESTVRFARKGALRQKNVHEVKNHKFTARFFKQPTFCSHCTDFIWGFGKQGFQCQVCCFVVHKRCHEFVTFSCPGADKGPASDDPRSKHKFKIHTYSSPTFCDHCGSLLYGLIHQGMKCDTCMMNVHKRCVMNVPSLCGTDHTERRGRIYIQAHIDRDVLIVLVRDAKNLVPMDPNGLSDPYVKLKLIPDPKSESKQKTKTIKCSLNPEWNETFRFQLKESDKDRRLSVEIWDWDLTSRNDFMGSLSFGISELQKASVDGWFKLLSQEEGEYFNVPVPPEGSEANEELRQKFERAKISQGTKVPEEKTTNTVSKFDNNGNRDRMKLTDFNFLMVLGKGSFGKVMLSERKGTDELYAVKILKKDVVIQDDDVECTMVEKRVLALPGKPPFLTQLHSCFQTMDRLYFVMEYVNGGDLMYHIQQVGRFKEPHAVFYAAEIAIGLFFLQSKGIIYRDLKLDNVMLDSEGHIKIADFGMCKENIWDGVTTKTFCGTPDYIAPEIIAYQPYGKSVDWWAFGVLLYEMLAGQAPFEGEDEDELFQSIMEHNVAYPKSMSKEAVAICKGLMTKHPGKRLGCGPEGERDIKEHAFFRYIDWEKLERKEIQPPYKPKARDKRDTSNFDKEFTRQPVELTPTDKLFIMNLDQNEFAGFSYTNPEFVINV

Turning to `c1cc(CC2CCOCC2)n2nc(Nc3ccc4c(NC5CCOCC5)n[nH]c4c3)nc2c1` [CC-509, [3-(2H-3,4,5,6-tetrahydropyran-4-ylamino)(1H-indazol-6-yl)][5-(2H-3,4,5,6-tetrahydropyran-4-ylmethyl)(2H-1,2,4-triazolo[1,5-a]pyridin-2-yl)]amine], the remaining activity at 3 µM on DYRK3_h (read-out: % control) was found to be 80%; at EEF2K_h (read-out: % control), 94%; at GRK5_h (read-out: % control) it was 96%; at PASK_h (read-out: % control), 100%; on PKC-betaII_h (read-out: % control) it was 43%; at PKC-betaI_h (read-out: % control), 92%. Moreover, the remaining activity at 3 µM on SGK_h (read-out: % control) was found to be 96%. Further, the IC50 in experiment [1] (Homo sapiens, B-cell, B-cells BCR, curve shown in figure, read-out: IC50 printed in Fig 3B panel) turned out to be 0.57 µM; in [1] (Homo sapiens, B-cell, mean ± SD, minimum n = 3, read-out: IC50, BCR-dependent upregulation of cell surface CD69) it was 0.51 ± 0.09 µM; in experiment [2] (Homo sapiens, HWB Basophils FcεR, curve shown in figure, read-out: IC50 printed in Fig 3D panel), 1.61 µM; in [2] (human whole blood, mean ± SD, minimum n = 3, read-out: IC50, FcεR-dependent basophil activation (CD63)) it was 1.52 ± 1.05 µM. For the same compound, the FcεR-independent basophil activation entry in experiment [2] (N-formyl-L-methionyl-L-leucyl-L-phenylalanine stimulation, data not shown) is recorded as “not affected”. Also, in the experiment with MH7A cells, the “IC50, TNFα-induced IL-6 production” value is “did not inhibit”.
With `COc1cc(Nc2ncc(F)c(Nc3ccc4c(n3)NC(=O)C(C)(C)O4)n2)cc(OC)c1OC` [R406, reference compound], the “% control” value at DYRK3_h (3 µM) is recorded as 90%; at EEF2K_h (3 µM), 92%; on GRK5_h (3 µM) it was 108%; at PASK_h (3 µM), 104%; at PKC-betaII_h (3 µM) it was 19%; at PKC-betaI_h (3 µM) it was 59%. Also, on SGK_h (3 µM), the “% control” value was determined as 94%. Besides, the half-maximal inhibitory concentration (IC50) in experiment [1] (mean ± SD, minimum n = 3, read-out: IC50, BCR-dependent upregulation of cell surface CD69) worked out at 0.4 ± 0.22 µM; with MH7A cells, 1.04 ± 0.13 µM. The “IC50, FcεR-dependent basophil activation (CD63)” value in experiment [2] (human whole blood, mean ± SD, minimum n = 3) is reported as “not active”.
